Reference: US20210322386A1, “METHODS OF DELAYING AND REVERSING ALZHEIMER'S DISEASE PROGRESSION” (Loma Linda University, priority 2018, published 2021)
“Also recorded” adds a separate entry of the source. Read-outs that look alike come from different tables or passages of the source.

Experiments:
CYP27A1 enzyme = molecular target: T1, CYP27A1 enzyme (Homo sapiens, UniProt Q02318); settings: from Mast et al., Mol. Pharmacol., 2015, cited from earlier work
T1 sequence (Q02318 34-531): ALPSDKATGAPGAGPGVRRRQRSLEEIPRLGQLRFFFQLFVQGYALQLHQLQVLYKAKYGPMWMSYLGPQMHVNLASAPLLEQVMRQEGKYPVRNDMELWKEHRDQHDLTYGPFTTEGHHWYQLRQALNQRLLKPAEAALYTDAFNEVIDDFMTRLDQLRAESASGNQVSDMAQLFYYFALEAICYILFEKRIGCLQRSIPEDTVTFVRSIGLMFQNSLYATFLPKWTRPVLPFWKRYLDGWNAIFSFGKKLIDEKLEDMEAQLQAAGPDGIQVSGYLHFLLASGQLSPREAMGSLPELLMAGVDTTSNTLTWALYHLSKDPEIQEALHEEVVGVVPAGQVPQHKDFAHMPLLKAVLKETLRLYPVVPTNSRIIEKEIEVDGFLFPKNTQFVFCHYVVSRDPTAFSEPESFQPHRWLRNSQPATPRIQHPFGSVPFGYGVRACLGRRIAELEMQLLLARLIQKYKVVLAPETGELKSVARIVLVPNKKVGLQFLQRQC

12-week old male mice = experiment: Pilot study of safety profile of anastrozole in mice (Appearance/Attitude Scores, weight gain, postmortem organs); format: in vivo
Procedure: A pilot study was carried out to assess the safety profile and cognitive impact of anastrozole in 12-week old male mice. Mice were fed anastrozole or placebo (vehicle alone) for a period of 8 weeks using a hydrogel as the means of administration (n=6 per group). Because of the poor palatability of anastrozole in its available form, it was administered through a hydration gel especially designed for medication delivery (LabGel-ClearH20 catalog # 71-02-1081; Portland, Me.), LabGel consists of purified water, sucralose, fruit and natural flavoring, hydrocolloids, potassium sorbate, sodium benzoate, and phosphoric acid. For each 236 mL dose of LabGel, 45 mg of anastrozole powder, 40 μL of red food coloring, and 1 mL of propylene glycol are thoroughly mixed and the resulting anastrozole is distributed into mouse cages at 3 grams LabGel/mouse/day in a custom--made container easily accessible to the mice. The final concentration of anastrozole in the LabGel is 0.1906 mg/mL and it is kept fresh by replacing it every 48 hours. In the experiment, mice consumed about 2 mL/mouse/day of LabGel equating to about 0.4 mg anastrozole/animal/day, which is consistent with the literature (Overk et al., J Neurosci Methods, 195: 194-9, 2011). Mice were monitored for health decline signs, and given an Appearance Score (Normal skin; skin tent on dorsum; hunched posture; eyes sunken in and severe skin tent; and failure to right self) and an Attitude Score (Normal; decreased activity; lethargy; non-responsiveness; and failure to flee when hand present in cage), as described (Bekkevold et al., J Am Assoc Lab Anim Sci, 52: 233-9, 2013).

[1] = test system: mice fed a high-cholesterol diet; experiment: Y-maze test of cognitive function in mice fed a high-cholesterol diet; format: in vivo; settings: mice on high-cholesterol diet (standard chow containing 0.5% cholesterol), 8 weeks of treatment, about 0.4 mg anastrozole/animal/day in LabGel
Procedure: A pilot study was carried out to assess the safety profile and cognitive impact of anastrozole in 12-week old male mice. Mice were fed anastrozole or placebo (vehicle alone) for a period of 8 weeks using a hydrogel as the means of administration (n=6 per group). Because of the poor palatability of anastrozole in its available form, it was administered through a hydration gel especially designed for medication delivery (LabGel-ClearH20 catalog # 71-02-1081; Portland, Me.), LabGel consists of purified water, sucralose, fruit and natural flavoring, hydrocolloids, potassium sorbate, sodium benzoate, and phosphoric acid. […] Mice were monitored for health decline signs, and given an Appearance Score (Normal skin; skin tent on dorsum; hunched posture; eyes sunken in and severe skin tent; and failure to right self) and an Attitude Score (Normal; decreased activity; lethargy; non-responsiveness; and failure to flee when hand present in cage), as described (Bekkevold et al., J Am Assoc Lab Anim Sci, 52: 233-9, 2013).
12-week old male mice on either a normal or high-cholesterol diet were tested on the same day with an interval of 2 hours between the training 15 min) and testing (5 min) phases. Data were analyzed by one-way ANOVA and Bonferroni post-hoc test. […]

| Structure (SMILES) | inhibition of the CYP27A1 enzyme (CYP27A1 enzyme) | other results |
| --- | --- | --- |
| CC(C)(C#N)c1cc(Cn2cncn2)cc(C(C)(C)C#N)c1 [anastrozole] | Inhibitors of the CYP27A1 enzyme | inhibition of the CYP27A1 enzyme (CYP27A1 enzyme; listed as Anastrozole): shown to inhibit the CYP27A1 enzyme; signs of health decline (Appearance Score and Attitude Score) (12-week old male mice; 8 weeks, about 0.4 mg anastrozole/animal/day in LabGel): No signs of health decline; postmortem evaluation of major organs (12-week old male mice; after 8 weeks): no signs of toxicity; weight gain progression vs vehicle group (12-week old male mice; throughout the 8-week study): identical between both groups; cognitive function as measured by Y-maze test [1]: protects against cognitive loss; also recorded: ameliorates the negative effect of a high-cholesterol diet on cognitive function |
| Cc1cccc([C@H](C)c2cnc[nH]2)c1C [dexmedetomidine] | Inhibitors of the CYP27A1 enzyme |  |
| N#Cc1ccc(C2CCCc3cncn32)cc1 (stereo not shown) [fadrozole] | Inhibitors of the CYP27A1 enzyme |  |
| CC[C@@H]([C@H](C)O)n1ncn(-c2ccc(N3CCN(c4ccc(OC[C@@H]5CO[C@@](Cn6cncn6)(c6ccc(F)cc6F)C5)cc4)CC3)cc2)c1=O [posaconazole] | Inhibitors of the CYP27A1 enzyme |  |
| C[C@@H](c1nc(-c2ccc(C#N)cc2)cs1)[C@](O)(Cn1cncn1)c1ccc(F)cc1F [ravuconazole] | Inhibitors of the CYP27A1 enzyme |  |
